Assay results reported in patent US20050244959A1, “Methods for inducing active hepatocytes proliferation, kits using such methods and uses of said kits” (priority 2004, published 2005).

How the values were obtained:
[1] = system: rat hepatocytes in coculture; experiment: Inhibition of extracellular matrix remodeling: hepatocyte DNA synthesis in coculture; format: cell-based; conditions: phenanthroline 1 μM added to cocultures treated with EGF for 24 h and then with TNFα
Description: (§1) Hepatocyte DNA synthesis is measured by using BrdU (bromodeoxyuridine) labeling. BrdU incorporation in DNA is detected by immunohistochemistry using the Cell Proliferation Kit (Amersham). The number of labeled hepatocytes is determined (5 fields per dish) in order to calculate the percentage of BrdU incorporation.
7 day-old cocultures are stimulated with EGF and then with TNFα for 24 h periods. Factors are added in a FCS-free medium. Inhibition of extracellular matrix degradation is induced with 1,10-Phenanthroline monohydrate (Sigma), a chelator of metal ions which inhibits the metalloproteinase activity. This compound is soluble in dimethylsulfoxyde and is used at 1 μM.

[2] = system: rat hepatocytes in coculture with rat biliary epithelial cells (RLEC); experiment: Hepatocyte DNA synthesis by BrdU labeling in rat hepatocyte/RLEC coculture; format: cell-based
Description: Freshly isolated hepatocytes are seeded on plastic dishes at 7×10^4 cells per cm2 in a mixture of 75% minimal essential medium and 25% 199 medium (Eurobio), supplemented with 2 mM L-glutamine, 0,1% bovine serum albumin (BSA, Sigma), 100 μg/ml streptomycin, 100 Ul/ml penicillin, 5 μg/ml bovine insulin (Sigma), 1.4×10^-6 M hydrocortisone hemisuccinate (Roussel) and 10% fetal calf serum (Hyclone). This medium is called “basal medium”.
After cell adhesion, approximately 4 hours after seeding, RLEC, previously trypsinized, are added on spread hepatocytes at 2×10^5 cells per cm2 in basal medium.
Twenty four hours later, the medium is removed and replaced by a medium supplemented in 7×10^-5 M hydrocortisone hemisuccinate, which promotes hepatocyte differentiation and survival. This medium is renewed everyday for 4 days. Then, the concentration of hydrocortisone hemisuccinate is decreased to 7×10^-6 M for 2 days.
7 day-old cocultures are stimulated with human recombinant EGF (50 ng/ml, Promega) and human recombinant TNF-alpha (10 ng/ml, Promokine) in basal medium for 3 to 10 days. The medium is renewed everyday. As control, cocultures exposed to TNFα alone or EGF are used.
To induce several rounds of hepatocyte proliferation, 7 day-old cocultures are stimulated with human recombinant EGF (50 ng/ml) and human recombinant TNFα (10 ng/ml) in basal medium, for 10 days. Then, a pause in stimulation is performed for 4 days, during which cells are maintained in medium supplemented in 7×10^-6 M hydrocortisone hemisuccinate. Next, cocultures are treated with EGF and TNFα in basal medium for 10 days.
as §1

human hepatocytes = experiment: DNA synthesis by BrdU incorporation in pure culture of human hepatocytes; format: cell-based; conditions: stimulated 24 h after seeding for 48 h
Description: Freshly isolated hepatocytes are seeded on plastic dishes at 5×10^4 cells per cm2 in a William's E medium (Eurobio) supplemented with 2 mM L-glutamine (Gibco), 0,1% bovine serum albumin (BSA, Sigma), 100 μg/ml streptomycin, 100 Ul/ml penicillin (Eurobio), 50 μg/ml gentamycine (Sigma), 5 μg/ml bovine insulin (Sigma), and 10% fetal calf serum (HyClone).
Twenty four hours after seeding, human hepatocytes are stimulated with recombinant human TNFα (Promokine, 10 ng/ml) and recombinant human EGF (Promega, 50 ng/ml). These factors are added in William's E medium (Eurobio) supplemented with 2 mM L-glutamine (Gibco), 0,1% bovine serum albumin (BSA, Sigma), 100 μg/ml streptomycin, 100 Ul/ml penicillin (Eurobio), 50 μg/ml gentamycine (Sigma), 5 μg/ml bovine insulin (Sigma), 1.4×10^-6 M hydrocortisone hemisuccinate (Roussel), 10% fetal calf serum. This medium is renewed every day and stimulation lasts at least 2 days.
BrdU is incubated in medium during the last 24 h of treatment. Then pure cultures are fixed with a mixture of 90% ethanol, 5% acid acetic and 5% water for 20 min at 4° C. BrdU incorporation in DNA is detected by immunohistochemistry using the Cell Proliferation kit (Amersham). Next, cytoplasm and nuclei are stained in blue with Hemalun (Merck). The numbers of labeled hepatocytes are determined (5 fields per dish) in order to calculate percentage of BrdU incorporation.

pro-MMP9 = experiment: Gelatin zymography of coculture supernatant; format: cell-based, rat; conditions: FCS-free medium, 24 h
Description: 7 day-old cocultures are stimulated with different combinations of TNFα and/or EGF in a FCS-free medium for 24 h. Twenty μl of supernatant are electrophoresed under nonreducing conditions on 12% SDS-polyacrylamide gel containing 0,1% bovine skin gelatin (Sigma) as substrate. After electrophoresis, the gel is washed twice with 2.5% Triton X-100 for 10 min and twice with water for 20 min. After incubation overnight at 37° C. in reaction buffer (50 mM Tris-HCL, pH 8; 5 mM CaCl2; 5 μM ZnCl2), the gel is stained with Coomassie Brillant Blue and destained. Clear zones in blue background indicate the presence of metalloproteinase pro-MMP9 activity; 5% FCS is used as positive control.

extracellular matrix = experiment: Extracellular matrix deposition analysis (reticulin staining) in coculture; format: cell-based, rat; conditions: 7 day-old cocultures
Description: Matrix fibers are visualized in cocultures fixed with a mixture of 4% paraformaldehyde and 2.5% glutaraldehyde in 0.1 M cacodylate buffer (pH 7.4) for 15 min at 4° C. Then the reticulin staining by silver impregnation of extracellular matrix is carried out according to the method of Gordon and Sweets and applied to coculture (Exp Cell Res 1984; J Cell Biol 1991). Matrix components are analysed by immunostaining using antibodies against fibronectin, collagen I, collagen III)

[3] = system: cyclin D1, EF21, cyclin E, Cdk1; experiment: Expression of cell cycle markers in coculture; format: cell-based, rat; conditions: successive 24 h treatments
Description: A test is provided to analyze the mechanism of cell cycle blockage or progression (early G1, Late G1, S and M) induced by drugs by studying the expression of cell cycle markers which sign different steps of cell cycle (cyclin D1, E2 F1, Cdk2, cyclin E, Cdk1, cyclin B, PCNA, alpha tubulin). Successive 24 h treatments of cocultures by molecules added alone or in combination with EGF or TNFα are used to determine the effect of each molecule.
Cells are arrested at each time (24 and 48 h) and protein extracts are prepared and separated in SDS-polyacrylamide gel. Cell cycle markers are analyzed by western blot using corresponding antibodies.

Row | Molecule | Pro-MMP9 (92 Kda) expression by zymography (pro-MMP9) | extracellular matrix (ECM) deposition (extracellular matrix) | effect on hepatocyte cell cycle progression [3] | also measured
1 | O.c1cnc2c(c1)ccc1cccnc12 [phenanthroline, 1,10-Phenanthroline monohydrate] |  |  |  | DNA synthesis [1]: strongly decreased
2 | EGF: human recombinant EGF (50 ng/ml, Promega), growth factor | not detected | very abundant | promotes hepatocyte cell cycle progression to late G1 | BrdU incorporation under permanent exposure ([2]; continued after a first 10 day-stimulation with TNFα/EGF, from day 10): gradually decreases; hepatocytes with DNA synthesis (S phase entry) (human hepatocytes): 8%
3 | TGFα: transforming growth factor alpha (20 ng/ml), replacing EGF |  |  |  | DNA synthesis when EGF is replaced by another growth factor ([2]; with TNFα, HGF 25 ng/ml, TGFα 20 ng/ml, compared with TNFα/EGF): highest DNA synthesis
4 | TNFα | expressed | very sparse | allows S entry through Cdk1 induction | 
5 | interleukin 6: cytokine known to modulate extracellular matrix remodeling, used at 5 ng/ml |  |  |  | hepatocyte response to growth factors (DNA replication) ([2]; coculture, 5 ng/ml): allow hepatocytes to respond to growth factors
